Experimental data as given in US10487078B2, “Compositions and methods of targeting mutant K-RAS” (NantBio, Inc., priority 2015, dated 2019).
Like-named read-outs stand apart in the source and are kept apart here.

Key:
[1] = molecular target: K-ras G12D (Homo sapiens, UniProt P01116, G12D); test: G-LISA Ras activation assay, 293H cells transfected with G12D mutant; type: cell-based; conditions: 1 hour treatment
Description: (§1) 293H cells were seeded in 6-wells at 0.6×10^6 cells per well and transfected next day with 5 μg of Ras wild-type, or G12C, G12D or G12V mutant DNA plasmid vector using transfection reagent Lipofectamine 3000. Next day cells were treated with 3.125-50 μM of Ras compounds for 1 hour. Wild-type transfected cells were subsequently treated with 100 ng/ml EGF for 2 minutes. Cells were washed once in ice-cold PBS, lysed in complete lysis buffer on ice, and processed by G-LISA according to Cytoskeleton protocol.
(§2) In-cell selectivity of the compounds presented herein against a specific K-ras mutant form can also be tested as shown in the following exemplary experiment. 293H cells were seeded in 6-wells and transfected next day with 5 μg of Ras wild-type, or G12C, G12D or G12V mutant DNA plasmid vector. Next day cells were treated with 3.125-50 μM of Ras compounds for 1 hour. Wild-type transfected cells were subsequently treated with 100 ng/ml EGF for 2 minutes. Cells were washed once in ice-cold PBS, lysed in complete lysis buffer on ice, and processed by G-LISA according to Cytoskeleton protocol. FIG. 1 depicts exemplary results.
as §1, with “In still further experiments, the inventors tested selected compounds in a G-LISA assay to compare IC50 values for wild-type and various mutant K-Ras (G12D, G12V) using the following general protocol: 293H” for “293H”

[2] = test system: Erk phosphorylation in Panc10.05 (G12D) cells; test: In-Cell Western Erk phosphorylation; type: cell-based; conditions: EC50, one hour treatment; read-out: In-Cell Western Erk phosporylation Panc10.05 (G12D)
Description: (§3) In-cell phosphorylation assays for Erk and Akt were performed on various of the compounds and exemplary results are shown in Table 3 below using […] and Panc10.05 cell lines for G12D K-ras mutants.
(§4) Cells are seeded in complete medium into black sided, clear-bottom 384-well microplates at 3000 cells/[…]/well. Plates are returned to 37° C. CO2 incubator for 18 hr. Drug is made as 200× in DMSO and diluted into medium to 10×. To each well is added 4 ul 10× test article or controls, and plates are returned to the incubator. Final assay DMSO concentration is 0.5%. After one hour, cells are fixed in formaldehyde, rinsed & permeabilized with triton X-100, and blocked with BSA/Goat serum blocking solution. Primary phospho-Akt and phospho-ERK antibodies are added and plates are incubated overnight at 4° C. Plates are rinsed with Tween-20 wash buffer and secondary antibody (Goat anti-rabbit, Thermofisher) is added. After 2 hours, plates are rinsed in Tween-20 wash buffer, and then PBS. Plates are imaged on the Celigo (Nexcelom) and cellular fluorescence is quantitated. Full inhibition of phospho-Akt is achieved with 1 uM BEZ235 (Sellekchem), while full inhibition of phospho-ERK is achieved with 1 uM MEK Inhibitor II Calbiochem). EC50 values are calculated using Graphpad Prism.

[3] = test system: Erk phosphorylation in Panc1 (G12D) cells; test: In-Cell Western Erk phosphorylation; type: cell-based; conditions: EC50, one hour treatment; read-out: In-Cell Western Erk phosporylation Panc1 (G12D)
Description: as §3, §4

[4] = test system: Akt phosphorylation in Panc1 (G12D) cells; test: In-Cell Western Akt phosphorylation; type: cell-based; conditions: EC50, one hour treatment; read-out: In-Cell Western Akt phosporylation Panc1 (G12D)
Description: as §3, §4

[5] = test system: Akt phosphorylation in Panc10.05 (G12D) cells; test: In-Cell Western Akt phosphorylation; type: cell-based; conditions: EC50, one hour treatment; read-out: In-Cell Western Akt phosporylation Panc10.05 (G12D)
Description: as §3, §4

[6] = test system: Ishikawa (K-Ras wild-type) cells; test: 72 hr cell viability (CellTiterBlue); type: cell-based; conditions: GI50, 72 hr
Description: (§5) Viability assays were performed on exemplary compounds and Table 2 below lists exemplary results for selected compounds tested on wild type (Ishikawa) and various K-ras mutants (Panc1-G12D; Panc10.05-G12D; HCT116-G13D).
(§6) Cells are counted and seeded at 1000 cells/36 ul medium/well into 384-well microplates. Cells are returned to 37° C. CO2 incubator for 18 hr. Drug is made as 200× in DMSO and diluted into medium to 10×. To each well is added 4 ul 10× drug, and plates are returned to the incubator. Final assay DMSO concentration is 0.5%. After 72 hr, 8 ul CellTiterBlue (Promega) is added to each well. After 3 hr, fluorescence (Ex550/Em590) is determined on the Victor Plate Reader (Perkin Elmer). Assay range is determined by DMSO control (100% viability) and 100 uM tamoxifen (0% viability). GI50 values are calculated using Graphpad Prism.

[7] = test system: Panc1 (G12D) cells; test: 72 hr cell viability (CellTiterBlue); type: cell-based; conditions: GI50, 72 hr
Description: as §5, §6

[8] = molecular target: K-ras G12V (GTP) (Homo sapiens, UniProt P01116, G12V); test: SPR assay (surface plasmon resonance); type: binding; conditions: 25° C., 8% DMSO
Description: Selected compounds were also tested for selective binding to wild type and mutant forms of K-ras in the active and non-active state using surface plasmon resonance, and exemplary results are shown in Table 4.
The running buffer in all surface plasmon resonance experiments was 10 mM HEPES pH 7.4, 150 mM NaCl, 0.1% (v/v) Tween-20, 1 mM MgCl2, 8% DMSO. Experiments were carried out on the SensiQ Pioneer optical biosensor. The flow rate was set at 50 μL/min and the temperature was 25° C. kRAS protein was immobilized to the Nickel-NTA charged surface of the SensiQ HisCap chip (sensiqtech.com) giving a yield of 4000 RU. Small molecules were prepared in 100% DMSO and further diluted to 8% DMSO in running buffer. The small molecules were injected using the Taylor diffusion gradient injection mode (OneStep®, see e.g., Evaluation of Taylor dispersion injections: Determining kinetic/affinity interaction constants and diffusion coefficients in label-free biosensing, John G. Quinn, Analytical Biochemistry (2011)). Buffer blanks were injected for double referencing purposes. Data processing and model fitting were performed using Qdat.

[9] = molecular target: K-ras G12V (Homo sapiens, UniProt P01116, G12V); test: G-LISA Ras activation assay, 293H cells transfected with G12V mutant; type: cell-based; conditions: 1 hour treatment
Description: as §1, §2
as §1, with “In still further experiments, the inventors tested selected compounds in a G-LISA assay to compare IC50 values for wild-type and various mutant K-Ras (G12D, G12V) using the following general protocol: 293H” for “293H”

[10] = molecular target: K-Ras wild-type (Homo sapiens, UniProt P01116); test: G-LISA Ras activation assay, 293H cells transfected with Ras wild-type, EGF-stimulated; type: cell-based; conditions: 1 hour treatment, 100 ng/ml EGF
Description: as §1, §2
as §1, with “In still further experiments, the inventors tested selected compounds in a G-LISA assay to compare IC50 values for wild-type and various mutant K-Ras (G12D, G12V) using the following general protocol: 293H” for “293H”

[11] = Table 1, G-LISA, 293H transfected, read-out: IC50 (μM) G12D
[12] = Table 5, IC50, 293H transfected, read-out: G-LISA (G12D)
[13] = Table 1, G-LISA, 293H transfected, read-out: IC50 (μM) G12V
[14] = Table 5, IC50, 293H transfected, read-out: G-LISA (G12V)

SMILES: O=C1CCc2cc(-c3csc(NC(=O)c4ncccn4)n3)ccc2N1 [Compound 4826]
- IC50 [1, 11]: > 25 µM
- IC50 [1, 12]: > 25 µM

SMILES: O=C1CCc2cc(-c3csc(NC(=O)c4ccccc4)n3)ccc2N1 [Compound 4825]
- IC50 [1, 11]: > 25 µM
- IC50 [1, 12]: > 25 µM

SMILES: Cc1ccccc1C(=O)Nc1nc(-c2ccc3c(c2)CCC(=O)N3)cs1 [Compound 4874]
- EC50 [2]: 14 µM
- EC50 [3]: > 25 µM
- EC50 [4]: 25 µM
- EC50 [5]: > 25 µM
- IC50 [1, 11]: 16 µM
- IC50 [1, 12]: 16 µM
- IC50 [6]: 3 µM
- IC50 [7]: 12 µM

SMILES: O=C1CCc2cc(-c3csc(NC(=O)c4scnc4C4CC4)n3)ccc2N1 [Compound 4735]
- IC50 [1, 11]: > 25 µM
- IC50 [1, 12]: > 25 µM
- Kd [8]: 43 µM
- SPR Assay G12V (GTP) Rmax [8]: Rmax = 203 ± 3

SMILES: O=C1CCc2cc(-c3csc(NC(=O)c4cnc(C5CC5)s4)n3)ccc2N1 [Compound 4683]
- IC50 [1, 11]: 12 µM
- IC50 [1, 12]: 11.9 µM

SMILES: Cc1nc(C)c(C(=O)Nc2nc(-c3ccc4c(c3)CNC(=O)N4)cs2)s1 [Compound 4748]
- IC50 [1, 11]: 21 µM
- IC50 [1, 12]: 21 µM

SMILES: Cc1nc(C(=O)Nc2nc(-c3ccc4c(c3)CCC(=O)N4)cs2)sc1C [Compound 4828]
- IC50 [1, 11]: > 25 µM
- IC50 [1, 12]: > 25 µM

SMILES: O=C1CCc2cc(-c3csc(NCc4ccccc4)n3)ccc2N1 [Compound 4824]
- IC50 [1, 11]: > 25 µM
- IC50 [1, 12]: > 25 µM

SMILES: Cc1nc(C)c(C(=O)Nc2nc(-c3cc4c5c(c3)CCN5C(=O)CC4)cs2)s1 [Compound 4749]
- IC50 [1, 11]: > 25 µM
- IC50 [1, 12]: 36 µM
- Kd [8]: 6.08 µM
- SPR Assay G12V (GTP) Rmax [8]: Rmax = 75.9 ± 0.1

SMILES: CCc1ncsc1C(=O)Nc1nc(-c2ccc3c(c2)CCC(=O)N3)cs1 [Compound 4747]
- IC50 [1, 11]: > 25 µM
- IC50 [1, 12]: > 25 µM
- Kd [8]: 10.1 µM
- SPR Assay G12V (GTP) Rmax [8]: Rmax = 85.3 ± 0.1

SMILES: CC(=O)Nc1ccc(-c2csc(NC(=O)c3sc(C)nc3C)n2)cc1 [Compound 4663]
- IC50 [9, 13]: 32 µM
- IC50 [9, 14]: 32 µM
- IC50 ([10]; Table 1, G-LISA, 293H transfected, read-out: IC50 (μM) Wild-type): 7 µM
- IC50 ([10]; Table 5, IC50, 293H transfected, read-out: G-LISA (wild type)): 7 µM
- IC50 [1, 11]: 15 µM
- IC50 [1, 12]: > 25 µM
- SPR Assay G12V (GTP) Kd [8]: No binding/fit

SMILES: Cc1nc(-c2ccccc2)sc1C(=O)Nc1nc(-c2ccc3c(c2)CCC(=O)N3)cs1 [Compound 4878]
- EC50 [2]: 13 µM
- EC50 [3]: 19 µM
- EC50 [4]: 26 µM
- EC50 [5]: > 25 µM
- IC50 [9, 13]: > 25 µM
- IC50 [9, 14]: > 25 µM
- IC50 [1, 11]: 19 µM
- IC50 [1, 12]: 19 µM
- IC50 [6]: 5 µM
- IC50 [7]: 7 µM

SMILES: CCc1sc(NC(=O)c2sc(C)nc2C)nc1-c1ccc2c(c1)CCC(=O)N2 [Compound 4803]
- IC50 [1, 11]: > 25 µM
- IC50 [1, 12]: 71 µM

SMILES: O=C1CCc2cc(-c3csc(Nc4ncccn4)n3)ccc2N1 [Compound 4829]
- IC50 [1, 11]: > 25 µM
- IC50 [1, 12]: > 25 µM

SMILES: CC(=O)N1CCCc2cc(-c3csc(NC(=O)c4sc(C)nc4C)n3)ccc21 [Compound 4686]
- IC50 [1, 11]: 11 µM
- IC50 [1, 12]: 11 µM
- Kd [8]: 11.4 µM
- SPR Assay G12V (GTP) Rmax [8]: Rmax = 94.2 ± 0.2

SMILES: Cc1nc(C)c(C(=O)Nc2nc(-c3ccc(NC(=O)c4ccccc4)cc3)cs2)s1 [Compound 4665]
- IC50 [1, 11]: > 25 µM
- IC50 [1, 12]: > 25 µM

SMILES: Cc1nc(C)c(C(=O)Nc2nc(-c3ccc4c(c3)CCC(=O)N4)c(C)s2)s1 [Compound 4802]
- IC50 [9, 13]: 17 µM
- IC50 [9, 14]: 17 µM
- IC50 [1, 11]: > 25 µM
- IC50 [1, 12]: 27 µM

SMILES: COCc1nc(C)c(C(=O)Nc2nc(-c3ccc4c(c3)CCC(=O)N4)cs2)s1 [Compound 4876]
- EC50 [2]: 17 µM
- EC50 [3]: 9 µM
- EC50 [4]: 20 µM
- EC50 [5]: > 25 µM
- IC50 [6]: 3 µM
- IC50 [7]: 13 µM

SMILES: Cc1nc(C)c(C(=O)Nc2nc(-c3ccc4c(c3)CCC(=O)N4C)cs2)s1 [Compound 4687]
- IC50 [1, 11]: 19 µM
- IC50 [1, 12]: 19 µM
- Kd [8]: 6.6 µM
- SPR Assay G12V (GTP) Rmax [8]: Rmax = 72.6 ± 0.1

SMILES: O=C1CCc2cc(-c3csc(NC(=O)c4cnc(-c5ccccc5)s4)n3)ccc2N1 [Compound 4684]
- IC50 [1, 11]: > 25 µM
- IC50 [1, 12]: > 25 µM

SMILES: Cc1nc(C)c(C(=O)Nc2nc(-c3ccc4c(c3)CCC(=O)N4)cs2)s1 [Compound 4662]
- IC50 [1, 11]: > 25 µM
- IC50 [1, 12]: > 25 µM

SMILES: N#Cc1ncc(C(=O)Nc2nc(-c3ccc4c(c3)CCC(=O)N4)cs2)s1 [Compound 4685]
- IC50 [1, 11]: > 25 µM
- IC50 [1, 12]: > 25 µM
